pIC50: −log10 of the molar value.
Target: Human Factor D (Homo sapiens (Human), UniProt P00746)
Assay: Human Factor D assay
Format: biochemical
Details: Table 4; Factor D inhibition, substrate Z-L-Lys-SBzl
Procedure: Human Factor D (purified from human serum, Complement Technology, Inc.) at 80 nM final concentration is incubated with test compound at various concentrations for 5 min at room temperature in 50 mM Tris, 1M NaCl, pH 7.5. A synthetic substrate Z-L-Lys-SBzl and DTNB (Ellman's reagent) are added to final concentrations of 100 μM each. […] IC50 values are calculated by nonlinear regression of complement Factor D reaction rates as a function of test compound concentration.

Sequence of Human Factor D (P00746 26-253): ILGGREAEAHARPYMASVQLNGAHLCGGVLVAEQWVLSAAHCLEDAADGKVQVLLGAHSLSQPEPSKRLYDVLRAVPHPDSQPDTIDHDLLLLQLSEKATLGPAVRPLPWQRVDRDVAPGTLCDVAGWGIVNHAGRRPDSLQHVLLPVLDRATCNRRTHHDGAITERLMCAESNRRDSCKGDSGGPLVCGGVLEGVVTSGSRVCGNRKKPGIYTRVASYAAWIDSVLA

CC(=O)c1nn(CC(=O)N2C[C@H](F)C[C@H]2c2nc3nc(Br)ccc3[nH]2)c2ccc(-c3cnc(C)nc3)cc12 [Compound 564, 2-(3-Acetyl-5-(2-methylpyrimidin-5-yl)-1H-indazol-1-yl)-1-((2S,4R)-2-(5-bromo-1H-imidazo[4,5-b]pyridin-2-yl)-4-fluoropyrrolidin-1-yl)ethan-1-one] and CC(=O)c1nn(CC(=O)N2C[C@H](F)C[C@@H]2c2nc3nc(Br)ccc3[nH]2)c2ccc(-c3cnc(C)nc3)cc12 [Compound 565, 2-(3-Acetyl-5-(2-methylpyrimidin-5-yl)-1H-indazol-1-yl)-1-((2R,4R)-2-(5-bromo-1H-imidazo[4,5-b]pyridin-2-yl)-4-fluoropyrrolidin-1-yl)ethan-1-one] cannot be ordered by pIC50: < 5.00 for the first, < 5.00 for the second.

Cc1cccc(NC(=O)[C@@H]2CC=CCN2C(=O)Cn2cc(C(N)=O)c3cc(-c4cnc(C)nc4)ccc32)n1 [Compound 566, (S)-1-(2-(2-((6-Methylpyridin-2-yl)carbamoyl)-3,6-dihydropyridin-(2H)-yl)-2-oxoethyl)-5-(2-methylpyrimidin-5-yl)-1H-indole-3-carboxamide] and CC(=O)c1nn(CC(=O)N2CC=CC[C@H]2C(=O)Nc2cccc(C)n2)c2ccc(-c3cnc(C)nc3)cc12 [Compound 569, (S)-1-(2-(3-acetyl-5-(2-methylpyrimidin-5-yl)-1H-indazol-1-yl)acetyl)-N-(6-methylpyridin-2-yl)-1,2,3,6-tetrahydropyridine-2-carboxamide] cannot be ordered by pIC50: < 5.00 for the first, < 5.00 for the second.

CC(=O)c1nn(CC(=O)N2C[C@H](F)C[C@H]2C(=O)OCc2ccc(Br)nc2N)c2ccc(-c3cnc(C)nc3)cc12 [Compound 570, (2S,4R)-(2-amino-6-bromopyridin-3-yl)methyl 1-(2-(3-acetyl-5-(2-methylpyrimidin-5-yl)-1H-indazol-1-yl)acetyl)-4-fluoropyrrolidine-2-carboxylate] and CC(=O)c1nn(CC(=O)N2C[C@H](F)C[C@H]2CC(=O)Nc2cccc(Br)n2)c2ccc(-c3cnc(C)nc3)cc12 [Compound 580, 2-((2R,4R)-1-(2-(3-Acetyl-5-(2-methylpyrimidin-5-yl)-1H-indazol-1-yl)acetyl)-4-fluoropyrrolidin-2-yl)-N-(6-bromopyridin-2-yl)acetamide] cannot be ordered by pIC50: < 5.00 for the first, < 5.00 for the second.

CC(=O)c1nn(CC(=O)N2C[C@H](F)C[C@H]2c2nnc(-c3cccc(Cl)c3F)[nH]2)c2ccc(-c3cnc(C)nc3)cc12 [Compound 571, 2-(3-acetyl-5-(2-methylpyrimidin-5-yl)-1H-indazol-1-yl)-1-((2S,4R)-2-(5-(3-chloro-2-fluorophenyl)-4H-1,2,4-triazol-3-yl)-4-fluoropyrrolidin-1-yl)ethan-1-one] and CC(=O)c1nn(CC(=O)N2C[C@H](F)C[C@@H]2c2nnc(-c3cccc(Cl)c3F)[nH]2)c2ccc(-c3cnc(C)nc3)cc12 [Compound 572, 2-(3-acetyl-5-(2-methylpyrimidin-5-yl)-1H-indazol-1-yl)-1-((2R,4R)-2-(5-(3-chloro-2-fluorophenyl)-4H-1,2,4-triazol-3-yl)-4-fluoropyrrolidin-1-yl)ethan-1-one] cannot be ordered by pIC50: < 5.00 for the first, < 5.00 for the second.

Compared with CC(=O)c1nn(CC(=O)N2CC=CC[C@H]2C(=O)Nc2cccc(Br)n2)c2ccc(-c3cnc(C)nc3)cc12 [Compound 573, (S)-1-(2-(3-Acetyl-5-(2-methylpyrimidin-5-yl)-1H-indazol-1-yl)acetyl)-N-(6-bromopyridin-2-yl)-1,2,3,6-tetrahydropyridine-2-carboxamide], CCOP(=O)(OCC)OC[C@@]12C[C@@H]1N(C(=O)Cn1nc(C(C)=O)c3cc(-c4cnc(C)nc4)ccc31)[C@H](C(=O)Nc1cccc(Br)n1)C2 [Compound 581, ((1S,3S,5R)-2-(2-(3-Acetyl-5-(2-methylpyrimidin-5-yl)-1H-indazol-1-yl)acetyl)-3-(6-bromopyridin-2-ylcarbamoyl)-2-azabicyclo[3.1.0]hexan-5-yl)methyl Diethyl Phosphate] is lower in pIC50: > 6.00 for the first, 5.00 to 6.00 for the second. The first is the more potent here.

Compared with CC(=O)c1nn(CC(=O)N2C[C@H](F)C[C@H]2c2nnc(-c3cccc(Cl)c3F)o2)c2ccc(-c3cnc(C)nc3)cc12 [Compound 574, 2-(3-Acetyl-5-(2-methylpyrimidin-5-yl)-1H-indazol-1-yl)-1-((2S,4R)-2-(5-(3-chloro-2-fluorophenyl)-1,3,4-oxadiazol-2-yl)-4-fluoropyrrolidin-1-yl)ethan-1-one], CC(=O)c1nn(CC(=O)N2C[C@H](F)C[C@H]2CC(=O)Nc2cccc(Cl)c2F)c2ccc(-c3cnc(C)nc3)cc12 [Compound 576, 2-((2R,4R)-1-(2-(3-Acetyl-5-(2-methylpyrimidin-5-yl)-1H-indazol-1-yl)acetyl)-4-fluoropyrrolidin-2-yl)-N-(3-chloro-2-fluorophenyl)acetamide] is lower in pIC50: 5.00 to 6.00 for the first, < 5.00 for the second.

CC(=O)c1nn(CC(=O)N2C[C@H](F)C[C@H]2CC(N)=O)c2ccc(-c3cnc(C)nc3)cc12 [Compound 575, 2-((2R,4R)-1-(2-(3-Acetyl-5-(2-methylpyrimidin-5-yl)-1H-indazol-1-yl)acetyl)-4-fluoropyrrolidin-2-yl)acetamide] and CC(=O)c1nn(CC(=O)N2C[C@H](F)C[C@H]2CC(=O)O)c2ccc(-c3cnc(C)nc3)cc12 [Compound 577, 2-((2R,4R)-1-(2-(3-Acetyl-5-(2-methylpyrimidin-5-yl)-1H-indazol-1-yl)acetyl)-4-fluoropyrrolidin-2-yl)acetic Acid] cannot be ordered by pIC50: < 5.00 for the first, < 5.00 for the second.

First: Cc1cccc(NC(=O)[C@@H]2CCC(F)CCN2C(=O)Cn2cc(C(N)=O)c3cc(-c4cnc(C)nc4)ccc32)n1 (stereo partly drawn) [Compound 578, 1-(2-((2S)-5-Fluoro-2-((6-methylpyridin-2-yl)carbamoyl)azepan-1-yl)-2-oxoethyl)-5-(2-methylpyrimidin-5-yl)-1H-indole-3-carboxamide]
Second: CCOP(=O)(OCC)OC[C@@]12C[C@@H](C(=O)Nc3cccc(Br)n3)N(C(=O)Cn3nc(C(C)=O)c4cc(-c5cnc(C)nc5)ccc43)[C@@H]1C2 [Compound 582, ((1R,3S,5S)-2-(2-(3-Acetyl-5-(2-methylpyrimidin-5-yl)-1H-indazol-1-yl)acetyl)-3-(6-bromopyridin-2-ylcarbamoyl)-2-azabicyclo[3.1.0]hexan-5-yl)methyl diethyl phosphate]
The pIC50 of the first is lower: < 5.00 for the first, > 6.00 for the second.

Compared with CC(=O)c1nn(CC(=O)N2C[C@H](F)C[C@H]2CC(=O)NC#N)c2ccc(-c3cnc(C)nc3)cc12 [Compound 579, 2-((2R,4R)-1-(2-(3-Acetyl-5-(2-methylpyrimidin-5-yl)-1H-indazol-1-yl)acetyl)-4-fluoropyrrolidin-2-yl)-N-cyanoacetamide], CC(=O)c1nn(CC(=O)N2C[C@H](F)C[C@H]2c2nnc(CCCC(F)(F)F)o2)c2ccc(-c3cnc(C)nc3)cc12 [Compound 583, 2-(3-Acetyl-5-(2-methylpyrimidin-5-yl)-H-indazol-1-yl)-1-((2S,4R)-4-fluoro-2-(5-(4,4,4-trifluorobutyl)-1,3,4-oxadiazol-2-yl)pyrrolidin-1-yl)ethan-1-one] is higher in pIC50: < 5.00 for the first, 5.00 to 6.00 for the second. The second is the more potent here.

In the case of CC(=O)c1nn(CC(=O)N2C[C@H](F)C[C@H]2c2nnc(CCCC(F)(F)F)[nH]2)c2ccc(-c3cnc(C)nc3)cc12 [Compound 584, 2-(3-Acetyl-5-(2-methylpyrimidin-5-yl)-1H-indazol-1-yl)-1-((2S,4R)-4-fluoro-2-(5-(4,4,4-trifluorobutyl)-4H-1,2,4-triazol-3-yl)pyrrolidin-1-yl)ethan-1-one], the pIC50 was 5.00 to 6.00.

From patent US11407738B2 (Achillion Pharmaceuticals, Inc., priority 2015, dated 2022)
